Results as given in ChEMBL document CHEMBL4219042, “Advances in macrocyclic peptide-based antibiotics” (2018).

How the values were obtained:
Type in all cases: functional
Pseudomonas aeruginosa [1] = experiment: Antibacterial activity against multidrug-resistant Pseudomonas aeruginosa 5510 after 16 to 20 hrs by agar dilution method
Pseudomonas aeruginosa [2] = experiment: Antibacterial activity against multidrug-resistant Pseudomonas aeruginosa 5585 after 16 to 20 hrs by agar dilution method
Escherichia coli [3] = experiment: Antibacterial activity against multidrug-resistant Escherichia coli 5364 after 16 to 20 hrs by agar dilution method
Pseudomonas aeruginosa [4] = experiment: Antibacterial activity against multidrug-resistant Pseudomonas aeruginosa 5298 after 16 to 20 hrs by agar dilution method
Pseudomonas aeruginosa [5] = experiment: Antibacterial activity against multidrug-resistant Pseudomonas aeruginosa 5313 after 16 to 20 hrs by agar dilution method
Escherichia coli [6] = experiment: Antibacterial activity against multidrug-resistant Escherichia coli 5539 after 16 to 20 hrs by agar dilution method
Escherichia coli [7] = experiment: Antibacterial activity against multidrug-resistant Escherichia coli 5353 after 16 to 20 hrs by agar dilution method
Pseudomonas aeruginosa [8] = experiment: Antibacterial activity against multidrug-resistant Pseudomonas aeruginosa 5215 after 16 to 20 hrs by agar dilution method
Escherichia coli [9] = experiment: Antibacterial activity against multidrug-resistant Escherichia coli 5237 after 16 to 20 hrs by agar dilution method

Measured: MIC

CCC(C)CCC(O)CC(=O)N[C@H](CCN)C(=O)N[C@H]1CCNC(=O)[C@H](CC(C)C)NC(=O)[C@H](CCN)NC(=O)[C@H](CCN)NC(=O)[C@@H](Cc2ccccc2)NC(=O)[C@H](CC(C)C)NC(=O)[C@H](CCN)NC1 (some centres undefined)
2 to 4 µg/mL: all assays above
